Measurements published in ChEMBL document CHEMBL6134827, “The discovery of novel antimicrobial peptides against drug-resistant bacteria based on fragments fusion strategy” (Eur J Med Chem, 2025).
Active and inactive are the calls of the source. The calls are words filed in the database; no cut-off is given here. Non-standard residues stand in square brackets, D forms with d. Residues, ends and D or L forms follow the SMILES beside them. Dab = NCC[C@H](N)C(=O)O

What was measured:
[1] = Toxicity in female C57BL/6 mouse assessed as effect on body weight at 5 to 20 mg/kg, ip administered daily and measured for 5 days; assay type: organism-based; settings: in vivo, 120 h, dose 5-20 mg/kg, time 5 day
Cell membrane [2] = experiment: Induction of outer cell membrane permeabilization in multidrug resistant Pseudomonas aeruginosa assessed as increase in fluorescence intensity at >16 microg/ml measured for 12 mins by NPN uptake assay; assay type: subcellular; settings: dose > 16.0 µg/ml
Pseudomonas aeruginosa [3] = experiment: Antimicrobial activity against multidrug resistant Pseudomonas aeruginosa at 1.9 to 500 microg/ml in presence of phosphatidylglycerol acid by checkerboard microdilution assay; assay type: functional, organism-based; settings: dose 1.9-500 µg/ml
[4] = Toxicity in female C57BL/6 mouse assessed as histopathological change in lung at 20 mg/kg, ip administered daily and measured for 5 days by H and E staining based analysis; assay type: organism-based; settings: in vivo, 120 h, time 5 day
Cell membrane [5] = experiment: Disruption of cell membrane in multidrug resistant Pseudomonas aeruginosa assessed as increase in red fluorescence at 16 microg/mL incubated after 2 hrs by SYTO9/PI double staining based fluorescence confocal microscopic analysis; assay type: subcellular; settings: dose 16.0 µg/ml
Acinetobacter baumannii = experiment: Antimicrobial activity against multidrug resistant Acinetobacter baumannii assessed as inhibition of visible microbial growth incubated for 18 hrs by broth microdilution method; assay type: functional
[6] = Cytotoxicity against human BEAS-2B cells assessed as survival rate at 64 microg/ml measured after 24 hrs by CCK-8 assay relative to control; assay type: toxicity, cell-based; settings: at 64 µg/mL, read-out: Survival
[7] = Cytotoxicity against HEK293T cells assessed as survival rate at 64 microg/ml measured after 24 hrs by CCK-8 assay relative to control; assay type: toxicity, cell-based, HEK-293T; settings: human, at 64 µg/mL, read-out: Survival
Pseudomonas aeruginosa [8] = experiment: In vivo antibacterial activity against multidrug resistant Pseudomonas aeruginosa infected in acute peritonitis C57BL/6 mouse model assessed as reduction in pulmonary edema at 5 to 20 mg/kg, ip measured after 12 hrs by H and E staining based analysis; assay type: functional, organism-based; settings: dose 5-20 mg/kg
[9] = Toxicity in female C57BL/6 mouse assessed as histopathological change in heart at 20 mg/kg, ip administered daily and measured for 5 days by H and E staining based analysis; assay type: organism-based; settings: in vivo, 120 h, time 5 day
Staphylococcus aureus [10] = experiment: Drug resistance, ratio of MIC for multidrug resistant Staphylococcus aureus after 16 passages to MIC for multidrug resistant Staphylococcus aureus after first exposure; assay type: functional
[11] = Toxicity in female C57BL/6 mouse assessed as histopathological change in spleen at 20 mg/kg, ip administered daily and measured for 5 days by H and E staining based analysis; assay type: organism-based; settings: in vivo, 120 h, time 5 day
Staphylococcus aureus [12] = experiment: Antibacterial activity against multidrug resistant Staphylococcus aureus assessed as reduction in bacterial growth at 32 microg/mL by bactericidal kinetic assay; assay type: functional, organism-based; settings: dose 32.0 µg/ml, time 0.5-4 hrs
Staphylococcus aureus [13] = experiment: Drug resistance, ratio of MIC for Staphylococcus aureus ATCC 29213 after 16 passages exposure to MIC for Staphylococcus aureus ATCC 29213 after first exposure; assay type: functional
Pseudomonas aeruginosa [14] = experiment: In vivo antibacterial activity against multidrug resistant Pseudomonas aeruginosa infected in acute peritonitis C57BL/6 mouse model assessed as reduction in bacterial load in liver at 10 to 20 mg/kg, ip measured after 12 hrs; assay type: functional, organism-based; settings: dose 10-20 mg/kg

CC(C)C[C@H](NC(=O)CN)C(=O)N[C@@H](CCCNC(=N)N)C(=O)N[C@@H](CCN)C(=O)N[C@@H](Cc1c[nH]c2ccccc12)C(=O)N[C@@H](CC(C)C)C(=O)N[C@@H](CCCNC(=N)N)C(=O)N[C@@H](CCN)C(=O)N[C@@H](Cc1ccccc1)C(=O)N[C@@H](CCN)C(=O)N[C@@H](CCN)C(=O)N[C@@H](Cc1ccccc1)C(=O)N[C@@H](Cc1c[nH]c2ccccc12)C(=O)O (H-GLR[Dab]WLR[Dab]F[Dab][Dab]FW-OH)
Activity [1]: Non-toxic
Activity (Cell membrane [2]): Active
Activity (Pseudomonas aeruginosa [3]): inactive
Activity [4]: Non-toxic
Activity (Cell membrane [5]): Active
MIC (Acinetobacter baumannii): 4.8 µM
viability at 24 h, 64 µg/mL [6]: > 80%
viability at 24 h, 64 µg/mL [7]: > 80%
Activity (Pseudomonas aeruginosa [8]): Active
Activity [9]: Non-toxic
Ratio (Staphylococcus aureus [10]): <2
Activity [11]: Non-toxic
Activity (Staphylococcus aureus [12]): Time-dependent-effect
Ratio (Staphylococcus aureus [13]): <2
Activity (Pseudomonas aeruginosa [14]): Active
